Read-outs that look alike come from different tables or passages of the source. Positions of bridges follow the written chain, without caps; N, C: chain ends. Non-standard residues stand in square brackets, D forms with d. Residues, ends and D or L forms follow the SMILES beside them. *: point of attachment. Lauroyl = CCCCCCCCCCCC(=O)*; Nle = CCCC[C@H](N)C(=O)O; Octanoyl = CCCCCCCC(=O)*; Dab = NCC[C@H](N)C(=O)O; Hexanoyl = CCCCCC(=O)*
Experiments:
[1] = test system: Staphylococcus aureus ATTC 25923; type: cell-based
Method: (§1) The minimal peptide concentration required to prevent the growth of a given test organism was determined after incubation overnight at 37 °C and was defined as the MIC. Activity was determined in representative bacteria, Escherichia coli ATTC 25922, Pseudomonas aeruginosa ATTC 27853, and Staphylococcus aureus ATTC 25923, using the broth microdilution method. Serial-two-fold dilutions of peptide (from 0.06 to 32 μg/mL) were performed in Mueller–Hinton broth (MHB) culture medium in sterile 96-well polypropylene microtiter plates inoculated with a final concentration of 5 × 10^5 CFU·mL^−1 of bacteria in each well. Bacteria were in the pre-exponential phase. Each determination was done by triplicate. In order to be considered acceptable, the three MIC results have to differ in only in one well, and the result was always given as the higher of the three. Drug-free and microorganism-free wells were used as positive and negative controls, respectively. Bacterial growth was visually determined on the basis of turbidity.

[2] = test system: Pseudomonas aeruginosa ATTC 27853; type: cell-based
Method: as §1

[3] = test system: Escherichia coli ATTC 25922; type: cell-based
Method: as §1

[4] = Kinetics of insertion into monolayers; type: binding, Salmonella enterica serotype Minnesota Re 595; conditions: initial pressure 32 mN·m^−1, peptide 0.48 μM, 25 min after injection, 10 mM Tris pH 7.4, 25 °C, average of three independent experiments (error < 10%)
Method: (§2) Monolayer studies were performed at room temperature (25 °C) on a monolayer system (NIMA Technology, Coventry, UK) by using a cylindrical PTFE (Teflon®, Wilmington, DE, USA) trough (5 cm diameter) containing a continuously stirred aqueous phase (12 mL, 10 mM Tris pH 7.4) and a Wilhelmy platinum plate connected to an electrobalance. The system was enclosed in a Plexiglass box to reduce surface contamination, and before each run, the plate and the trough were cleaned with hot water at >70 °C to avoid carryover of lipid or peptide. Monolayers of POPG, POPE/POPG (6:4), POPC, or LPS were formed by applying small drops of the lipid stock solutions in CHCl3 on the aqueous subphase with a microsyringe (Hamilton Co., Reno, NV, USA) to achieve a surface pressure of 32 mN·m^−1. After 10 min, allowing for solvent evaporation, a known aliquot of peptide was added without disturbance of the monolayer via an inlet port, and the surface pressure was continuously monitored.

[5] = Kinetics of insertion into monolayers; type: binding; conditions: 25 min after injection, 10 mM Tris pH 7.4, 25 °C, average of three independent experiments (error < 10%); for Increase in surface pressure (Δπ), POPE/POPG: POPE/POPG 6:4, initial pressure 32 mN·m^−1, peptide 0.48 μM; for Increase in surface pressure (Δπ), POPC / Increase in surface pressure (Δπ), POPG: initial pressure 32 mN·m^−1, peptide 0.48 μM
Method: as §2

[6] = broth microdilution, MHB, 5 × 10^5 CFU/mL, overnight 37 °C, triplicate, higher of the three

Structure (SMILES)	MIC SA ([1]; ATTC 25923) [µM]	MIC SA [1, 6] [µg/mL]	MIC PA ([2]; ATTC 27853) [µM]	MIC PA [2, 6] [µg/mL]	MIC EC ([3]; ATTC 25922) [µM]	MIC EC [3, 6] [µg/mL]	Increase in surface pressure (Δπ), LPS [4] [mN·m^−1]	Increase in surface pressure (Δπ), POPE/POPG [5] [mN·m^−1]	Increase in surface pressure (Δπ), POPC [5] [mN·m^−1]	Increase in surface pressure (Δπ), POPG [5] [mN·m^−1]
CCCCCC(=O)N[C@@H](CCN)C(=O)N[C@H](C(=O)N[C@@H](CCN)C(=O)N[C@H]1CSSC[C@H](C(N)=O)NC(=O)[C@H](CCN)NC(=O)[C@H](CCN)NC(=O)[C@H](CC(C)C)NC(=O)[C@@H](Cc2ccccc2)NC(=O)[C@H](CCN)NC1=O)[C@@H](C)O [spB-1] (Hexanoyl-[Dab]T[Dab]C[Dab][dF]L[Dab][Dab][dC]-NH2; disulfide 4-10)	> 27	> 32	> 27	> 32	> 27	> 32	12.1	4.6	0.9	5.7
CCCCCCCC(=O)N[C@@H](CCN)C(=O)N[C@H](C(=O)N[C@@H](CCN)C(=O)N[C@H]1CSSC[C@H](C(N)=O)NC(=O)[C@H](CCN)NC(=O)[C@H](CCN)NC(=O)[C@H](CC(C)C)NC(=O)[C@@H](Cc2ccccc2)NC(=O)[C@H](CCN)NC1=O)[C@@H](C)O [spB-2] (Octanoyl-[Dab]T[Dab]C[Dab][dF]L[Dab][Dab][dC]-NH2; disulfide 4-10)	26	> 32	6.6	8	13	16	12.6	5.5	1.8	7.0
CCCCCCCCCCCC(=O)N[C@@H](CCN)C(=O)N[C@H](C(=O)N[C@@H](CCN)C(=O)N[C@H]1CSSC[C@H](C(N)=O)NC(=O)[C@H](CCN)NC(=O)[C@H](CCN)NC(=O)[C@H](CC(C)C)NC(=O)[C@@H](Cc2ccccc2)NC(=O)[C@H](CCN)NC1=O)[C@@H](C)O [spB-4] (Lauroyl-[Dab]T[Dab]C[Dab][dF]L[Dab][Dab][dC]-NH2; disulfide 4-10)	6.3	8	6.3	8	13	16	12.2	5.0	2.5	6.7
CCCCCCCC(=O)N[C@@H](CCN)C(=O)N[C@H](C(=O)N[C@@H](CCN)C(=O)N[C@H]1CSSC[C@H](C(N)=O)NC(=O)[C@H](CCN)NC(=O)[C@H](CCN)NC(=O)[C@H](CCCC)NC(=O)[C@@H](Cc2ccccc2)NC(=O)[C@H](CCN)NC1=O)[C@@H](C)O [spB-5] (Octanoyl-[Dab]T[Dab]C[Dab][dF][Nle][Dab][Dab][dC]-NH2; disulfide 4-10)	> 26	> 32	3.3	4	1.7	2	10.6	6.5	0.8	7.3

Reference: article PMC8708274, “Unveiling the Membrane and Cell Wall Action of Antimicrobial Cyclic Lipopeptides: Modulation of the Spectrum of Activity” (Pharmaceutics, 2021)
